Experimental data taken from PubChem BioAssay (NCI).
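Grown in 96-well plates, cells were treated for 48 hours with each compound at five concentrations. Insufficient inhibition: endpoint recorded as highest concentration tested. Definition used: TGI = concentration required for complete inhibition of growth.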

What was measured:
Test in all cases: NCI-60 cell line screen, 48 h
TK-10 renal = test system: TK-10 renal
A549 NSCLC = test system: A549 NSCLC
NCI-H522 lung = test system: NCI-H522 lung
A498 renal = test system: A498 renal
MALME-3M melanoma = test system: MALME-3M melanoma
SF-268 CNS = test system: SF-268 CNS
HL-60(TB) leukemia = test system: HL-60(TB) leukemia
SK-MEL-2 melanoma = test system: SK-MEL-2 melanoma
MCF7 breast = test system: MCF7 breast
M14 melanoma = test system: M14 melanoma
PC-3 prostate = test system: PC-3 prostate
ACHN renal = test system: ACHN renal
OVCAR-5 ovarian = test system: OVCAR-5 ovarian
HT29 colon = test system: HT29 colon
SN12C renal = test system: SN12C renal
HOP-92 NSCLC = test system: HOP-92 NSCLC
SF-295 CNS = test system: SF-295 CNS
KM12 colon = test system: KM12 colon
SF-539 CNS = test system: SF-539 CNS
HS 578T breast = test system: HS 578T breast
IGROV1 ovarian = test system: IGROV1 ovarian
EKVX NSCLC = test system: EKVX NSCLC
SNB-75 CNS = test system: SNB-75 CNS
MDA-MB-231 breast = test system: MDA-MB-231 breast
OVCAR-3 ovarian = test system: OVCAR-3 ovarian
NCI-H460 lung = test system: NCI-H460 lung
HOP-62 NSCLC = test system: HOP-62 NSCLC
UACC-257 melanoma = test system: UACC-257 melanoma
RXF 393 renal = test system: RXF 393 renal
MOLT-4 leukemia = test system: MOLT-4 leukemia
OVCAR-8 ovarian = test system: OVCAR-8 ovarian
UACC-62 melanoma = test system: UACC-62 melanoma
CAKI-1 renal = test system: CAKI-1 renal
786-0 renal = test system: 786-0 renal
HCT-116 colon = test system: HCT-116 colon
SR leukemia = test system: SR leukemia
UO-31 renal = test system: UO-31 renal
NCI-H226 lung = test system: NCI-H226 lung
U251 CNS = test system: U251 CNS
K-562 leukemia = test system: K-562 leukemia
DU-145 prostate = test system: DU-145 prostate

How did the TGI (TK-10 renal) turn out when OC(c1cc(C23CC4CC(CC(C4)C2)C3)nc2c(Cl)cc(Cl)cc12)C1CCCCN1 (stereo unspecified) was run?
Its TGI is 3.23 µM.

And the TGI (A549 NSCLC)?
Its TGI is 3.08 µM.

What about the TGI (NCI-H522 lung) of the same molecule?
The TGI was 3.33 µM.

And the TGI (A498 renal)?
The TGI was 3.05 µM.

What about the TGI (MALME-3M melanoma) of the same molecule?
Its TGI is 3.71 µM.

And the TGI (SF-268 CNS)?
The TGI was 3.25 µM.

And the TGI (HL-60(TB) leukemia)?
Its TGI is 3.59 µM.

What about the TGI (SK-MEL-2 melanoma) of the same molecule?
The TGI was 3.46 µM.

What about the TGI (MCF7 breast) of the same molecule?
The TGI was 2.9 µM.

And the TGI (M14 melanoma)?
The TGI was 3.13 µM.

And the TGI (PC-3 prostate)?
Its TGI is 3.09 µM.

And the TGI (ACHN renal)?
The TGI was 2.94 µM.

What about the TGI (OVCAR-5 ovarian) of the same molecule?
Its TGI is 3.17 µM.

And the TGI (HT29 colon)?
The TGI was 3.04 µM.

What about the TGI (SN12C renal) of the same molecule?
The TGI was 3.13 µM.

What about the TGI (HOP-92 NSCLC) of the same molecule?
Its TGI is 2.67 µM.

And the TGI (SF-295 CNS)?
Its TGI is 3.76 µM.

And the TGI (KM12 colon)?
The TGI was 3.07 µM.

What about the TGI (SF-539 CNS) of the same molecule?
The TGI was 3.22 µM.

And the TGI (HS 578T breast)?
Its TGI is 3.89 µM.

What about the TGI (IGROV1 ovarian) of the same molecule?
The TGI was 3.45 µM.

What about the TGI (EKVX NSCLC) of the same molecule?
Its TGI is 3.59 µM.

What about the TGI (SNB-75 CNS) of the same molecule?
Its TGI is 2.96 µM.

What about the TGI (MDA-MB-231 breast) of the same molecule?
Its TGI is 2.78 µM.

What about the TGI (OVCAR-3 ovarian) of the same molecule?
The TGI was 3.3 µM.

What about the TGI (NCI-H460 lung) of the same molecule?
The TGI was 3.13 µM.

What about the TGI (HOP-62 NSCLC) of the same molecule?
Its TGI is 2.97 µM.

And the TGI (UACC-257 melanoma)?
Its TGI is 3.53 µM.

What about the TGI (RXF 393 renal) of the same molecule?
Its TGI is 3.07 µM.

And the TGI (MOLT-4 leukemia)?
Its TGI is 3.57 µM.

And the TGI (OVCAR-8 ovarian)?
Its TGI is 3.18 µM.

And the TGI (UACC-62 melanoma)?
Its TGI is 3.16 µM.

And the TGI (CAKI-1 renal)?
Its TGI is 3.24 µM.

And the TGI (786-0 renal)?
Its TGI is 3.21 µM.

And the TGI (HCT-116 colon)?
Its TGI is 2.7 µM.

And the TGI (SR leukemia)?
Its TGI is 2.84 µM.

And the TGI (UO-31 renal)?
Its TGI is 2.35 µM.

What about the TGI (NCI-H226 lung) of the same molecule?
The TGI was 3.77 µM.

And the TGI (U251 CNS)?
The TGI was 3 µM.

And the TGI (K-562 leukemia)?
Its TGI is 3.07 µM.

What about the TGI (DU-145 prostate) of the same molecule?
Its TGI is 3.29 µM.
